Patent US20220079953A1, “METHODS FOR MANAGEMENT OF WEIGHT” (The University of Sydney, priority 2018, published 2022)

How the values were obtained:
[1] = Progressive ratio consumption of a high-sugar high-fat food (M&Ms) by non-human primates; assay type: in vivo, rhesus monkeys; settings: for trend of breakpoint with increasing doses: 0, 1, 2, 3 mg/kg IM
From the text: Individuals who are overweight or obese frequently report intense cravings for, and motivation to, consume food. Here we model the motivational aspects that can drive excessive food-seeking and consumption, which can lead to overweight and obesity by studying rhesus monkeys who must respond under a progressive ratio to receive M&Ms (which are high in both fat and sugar). A progressive ratio requires subjects to work increasingly harder to obtain reinforcement, modelling the intense motivation and craving characteristic of excessive food-seeking and consumption in individuals who are obese, overweight or at risk of being overweight.
Five female rhesus monkeys were trained to press a lever to self-administer M&Ms. Under a progressive ratio, subjects responded for a reinforcer of either 1 or 5 M&Ms. The ratio began at either 25 (two subjects) or 50 (three subjects) responses per reinforcement and increased by 40% after each reinforcer delivery. SOC-1 was administered IM using a within-subjects design whereby all monkeys received doses of 0, 1, 2 and 3 mg/kg SOC-1. One dose per subject was administered prior to each progressive ratio test session. Breakpoint refers to the number of times the monkeys would press the lever to receive a single reinforcer before giving up.

[2] = Inhibition of weight gain in rats; assay type: in vivo, Sprague Dawley rats; settings: 30 mg/kg oral gavage once daily for 10 days; ad libitum standard chow
Experimental: 20 adult male Sprague Dawley rats were given ad libitum access to standard rat chow in their home cage over the course of the experiment. Rats were divided into four equally sized groups and were treated once daily with either 0, 5, 10 or 30 mg/kg SOC-1 via oral gavage for 10 days. Body weights were recorded daily.

[3] = Extinction of food reward-associated lever pressing in food restricted rats; assay type: in vivo, Long-Evans rats; settings: all doses tested (5, 10, 20 mg/kg p.o.), 30 min before session
Experimental: Adult male Long-Evans rats were allowed to feed freely until they reached a target weight of 320-340 g. Rats were then maintained at this weight by restricting feeding. Once target weight had been reached, each rat was placed in an operant test chamber and was trained to press the right lever to receive a 45 mg food pellet under an FR1 schedule of reinforcement during daily 15 min sessions.
Once stable responding (right-side lever pressing+/−10% of the mean of the previous three sessions) had been established, drug testing commenced. Rats were pre-treated with SOC-1 (0, 5, 10, 20 mg/kg) administered by oral gavage (p.o.) 30 min prior to the start of the session.

[4] = Reinstatement of sucrose-seeking; assay type: in vivo, Sprague Dawley rats; settings: for reinstatement of sucrose seeking: 15 min before session, p<0.001 vs 0 mg/kg reinstatement
From the text: Sugar is a highly palatable food component. This contributes greatly to the maintenance of the high sugar diets that can lead to obesity. Once a healthier diet has been established, including cessation of consumption of high sugar foods, it can be difficult for individuals to maintain that healthier diet. Specifically, after a period of not consuming the high sugar foods individuals can again start seeking out and consuming those foods. Here we model this resumption of high-sugar diet consumption using a rat model of reinstatement of sucrose self-administration to assess whether SOC-1 might reduce motivation to resume consumption of high-sugar foods.
Male Sprague Dawley rats were water deprived for 19.5 hours before the start of sucrose self-administration. Water deprivation continued for the first five days of self-administration. Rats were allowed to acquire self-administration of sucrose (10%) during 30-minute FR-1 scheduled sessions for 20 days. Following this, rats were exposed to daily 30-minute extinction sessions. Rats met the extinction criteria (minimum of 10 days and less than 15 active lever presses per session for 2 consecutive days) after 10 sessions. Once the extinction criteria were met, rats underwent reinstatement testing. Each reinstatement test session was separated by two extinction days. Prior to each reinstatement session, rats received an injection of vehicle or SOC-1. Fifteen minutes later, they were placed in the testing chamber, where they had access to 0.3 ml sucrose, which they could lever press for. Rats received SOC-1 in an ascending dose sequence (0, 5, 10 mg/kg, ip). On the reinstatement session subsequent to SOC-1 dose testing, an additional vehicle session was conducted to ensure that rats continued to reinstate to sucrose-seeking behaviour when no treatment was given.

[5] = Sucrose self-administration under FR5 schedule; assay type: in vivo, Sprague Dawley rats; settings: 10% sucrose; for active lever presses / number of sucrose rewards received: 15 min before session, p<0.001
From the text: This model induces high levels of sucrose consumption and sucrose seeking in rats, akin to the unhealthy high sugar diets that are a major determinant of obesity. Excessive consumption of sugar-sweetened beverages are especially associated with increased risk of obesity and type 2 diabetes. Thus, the model chosen here is particularly well suited as it involves escalating voluntary consumption of high-sucrose solution by rats, providing both face and construct validity.
Male Sprague Dawley rats were water deprived for 19.5 hours before the start of sucrose self-administration. Water deprivation continued for the first five days of self-administration. Initially, rats were trained during daily 30 minute FR-1 scheduled sessions to lever press for sucrose (10%). Stable responding under the FR-1 schedule was achieved within 10 days. Rats were then transferred to an FR2 and FR3 schedule for a minimum of three days, and then an FR5 schedule until lever pressing stabilised. Subsequently SOC-1 testing began. Each test day was separated by 2-3 FR-5 scheduled sessions. Rats received SOC-1 in an ascending dose sequence (0, 5, and 10 mg/kg, ip), which was administered 15 minutes prior to the test session. On the final test session, rats received a vehicle injection to ensure rats continued to self-administer sucrose at high levels when not receiving treatment with SOC-1.

Cn1ncc2c1Nc1ccccc1NC2 [SOC-1]
trend of breakpoint with increasing doses ([1]; reinforcement 1 M&M, trend analysis p=0.012): significant linear decrease in breakpoint | breakpoint (lever presses for a single reinforcer before giving up) ([1]; reinforcement 1 M&M, 2 mg/kg IM, p=0.015 vs 0 mg/kg): significantly reduced the breakpoint | breakpoint (lever presses for a single reinforcer before giving up) ([1]; reinforcement 1 M&M, 3 mg/kg IM, p=0.014 vs 0 mg/kg): significantly reduced the breakpoint | trend of breakpoint with increasing doses ([1]; reinforcement 5 M&Ms, trend analysis p=0.025): significant linear decrease in breakpoint | breakpoint (lever presses for a single reinforcer before giving up) ([1]; reinforcement 5 M&Ms, 3 mg/kg IM, p=0.021 vs 0 mg/kg): significantly reduced the breakpoint | weight gain over the 10 treatment days [2]: significantly inhibited weight gain | non-reinforced responding for a food pellet [3]: significantly reduced | reinstatement of sucrose seeking ([4]; 5 mg/kg ip): completely prevented reinstatement | reinstatement of sucrose seeking ([4]; 10 mg/kg ip): completely prevented reinstatement | inactive lever presses ([4]; reinstatement sessions, any dose (5, 10 mg/kg ip)): no significant effect | active lever presses ([5]; 5 mg/kg ip): significantly decreased | number of sucrose rewards received ([5]; 5 mg/kg ip): significantly decreased | active lever presses ([5]; 10 mg/kg ip): significantly decreased | number of sucrose rewards received ([5]; 10 mg/kg ip): significantly decreased | inactive lever presses ([5]; 5 and 10 mg/kg ip): no significant effect
